# Test results reported in ChEMBL document CHEMBL3808387, “Discovery of IWP-051, a Novel Orally Bioavailable sGC Stimulator with Once-Daily Dosing Potential in Humans” (ACS Med Chem Lett, 2016).
# How the values were obtained:
# [1] = Intrinsic clearance in Sprague-Dawley rat liver microsomes assessed per mg of protein at 2 uM after 10 to 30 mins by LC/MS/MS analysis in presence of NADPH; assay type: ADME; conditions: read-out: CLH
# [2] = target: Soluble guanylate cyclase (Homo sapiens, UniProt O75343+P33402+Q02108+Q02153); assay: Activation of SGC in HEK293 cells assessed as cGMP production after 20 mins by LC-MS/MS analysis in presence of NO-donor DETA-NONOate; assay type: cell-based
# Soluble guanylate cyclase, sequence (Q02153 whole entry): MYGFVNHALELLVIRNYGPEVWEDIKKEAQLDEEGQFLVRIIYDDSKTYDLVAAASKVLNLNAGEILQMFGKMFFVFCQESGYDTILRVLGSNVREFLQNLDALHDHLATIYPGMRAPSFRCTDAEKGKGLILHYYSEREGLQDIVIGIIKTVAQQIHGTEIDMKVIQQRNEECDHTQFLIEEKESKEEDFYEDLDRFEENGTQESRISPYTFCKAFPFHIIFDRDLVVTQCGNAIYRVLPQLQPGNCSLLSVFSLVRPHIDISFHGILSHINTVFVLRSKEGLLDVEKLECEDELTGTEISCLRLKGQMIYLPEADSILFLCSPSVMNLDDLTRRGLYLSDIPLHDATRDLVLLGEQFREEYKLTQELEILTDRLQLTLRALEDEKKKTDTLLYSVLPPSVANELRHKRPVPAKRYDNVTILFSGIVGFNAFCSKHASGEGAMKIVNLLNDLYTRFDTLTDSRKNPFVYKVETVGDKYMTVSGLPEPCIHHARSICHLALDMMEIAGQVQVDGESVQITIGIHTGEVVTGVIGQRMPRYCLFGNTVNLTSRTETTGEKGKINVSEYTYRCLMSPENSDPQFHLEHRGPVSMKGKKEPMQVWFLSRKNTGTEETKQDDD
# Soluble guanylate cyclase, sequence (O75343 whole entry): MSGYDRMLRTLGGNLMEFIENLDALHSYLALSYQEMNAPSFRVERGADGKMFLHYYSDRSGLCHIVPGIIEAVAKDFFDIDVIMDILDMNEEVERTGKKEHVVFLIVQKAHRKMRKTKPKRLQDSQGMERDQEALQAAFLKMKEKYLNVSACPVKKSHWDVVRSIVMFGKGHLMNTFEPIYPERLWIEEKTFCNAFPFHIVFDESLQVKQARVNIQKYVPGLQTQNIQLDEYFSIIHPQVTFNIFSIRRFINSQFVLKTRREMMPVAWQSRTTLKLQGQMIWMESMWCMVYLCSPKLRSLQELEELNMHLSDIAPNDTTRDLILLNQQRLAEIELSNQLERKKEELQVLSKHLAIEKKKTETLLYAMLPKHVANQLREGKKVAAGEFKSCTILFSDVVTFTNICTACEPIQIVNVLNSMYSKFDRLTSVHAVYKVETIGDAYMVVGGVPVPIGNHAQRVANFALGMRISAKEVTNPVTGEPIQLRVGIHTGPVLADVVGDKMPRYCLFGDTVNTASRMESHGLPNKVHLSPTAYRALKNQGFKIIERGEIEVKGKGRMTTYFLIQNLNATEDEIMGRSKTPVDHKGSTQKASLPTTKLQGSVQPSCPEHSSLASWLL
# Soluble guanylate cyclase, sequence (P33402 whole entry): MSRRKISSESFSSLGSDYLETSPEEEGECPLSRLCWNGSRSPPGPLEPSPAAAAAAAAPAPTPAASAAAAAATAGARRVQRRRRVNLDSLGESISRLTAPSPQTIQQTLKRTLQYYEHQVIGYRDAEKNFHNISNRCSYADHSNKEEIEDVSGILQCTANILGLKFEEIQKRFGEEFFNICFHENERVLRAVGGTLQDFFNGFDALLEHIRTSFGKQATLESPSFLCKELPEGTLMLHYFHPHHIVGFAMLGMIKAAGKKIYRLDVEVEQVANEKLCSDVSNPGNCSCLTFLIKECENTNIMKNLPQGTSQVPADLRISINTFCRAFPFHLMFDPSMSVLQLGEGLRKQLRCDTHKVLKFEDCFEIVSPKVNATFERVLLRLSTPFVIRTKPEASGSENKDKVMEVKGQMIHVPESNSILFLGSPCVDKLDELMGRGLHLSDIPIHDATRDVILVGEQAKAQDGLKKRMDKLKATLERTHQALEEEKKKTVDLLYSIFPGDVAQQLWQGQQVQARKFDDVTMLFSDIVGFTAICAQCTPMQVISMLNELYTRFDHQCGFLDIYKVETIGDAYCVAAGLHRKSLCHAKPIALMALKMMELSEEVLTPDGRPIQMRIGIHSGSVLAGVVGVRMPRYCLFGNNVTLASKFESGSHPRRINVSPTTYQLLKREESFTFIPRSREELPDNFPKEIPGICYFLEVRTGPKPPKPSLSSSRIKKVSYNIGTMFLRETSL
# Soluble guanylate cyclase, sequence (Q02108 whole entry): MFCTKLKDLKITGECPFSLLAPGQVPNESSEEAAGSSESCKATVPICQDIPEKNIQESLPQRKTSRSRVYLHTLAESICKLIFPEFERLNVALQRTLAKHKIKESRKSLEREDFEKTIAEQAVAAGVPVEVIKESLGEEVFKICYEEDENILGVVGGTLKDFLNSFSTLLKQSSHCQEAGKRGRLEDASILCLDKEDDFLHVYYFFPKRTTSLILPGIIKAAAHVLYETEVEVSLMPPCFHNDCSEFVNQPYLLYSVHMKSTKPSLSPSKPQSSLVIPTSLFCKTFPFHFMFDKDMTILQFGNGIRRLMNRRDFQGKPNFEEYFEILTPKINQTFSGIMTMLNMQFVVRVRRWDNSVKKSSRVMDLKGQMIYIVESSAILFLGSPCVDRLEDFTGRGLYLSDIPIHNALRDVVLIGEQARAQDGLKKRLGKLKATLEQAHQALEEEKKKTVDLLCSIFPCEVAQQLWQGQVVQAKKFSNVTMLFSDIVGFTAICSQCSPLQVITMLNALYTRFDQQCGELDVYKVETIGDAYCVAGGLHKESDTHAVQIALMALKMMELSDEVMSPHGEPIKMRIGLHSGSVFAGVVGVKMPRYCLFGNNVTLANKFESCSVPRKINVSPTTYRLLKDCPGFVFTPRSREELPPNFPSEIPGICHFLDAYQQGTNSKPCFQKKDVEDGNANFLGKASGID
# [3] = Intrinsic clearance in human liver microsomes assessed per mg of protein at 2 uM after 10 to 30 mins by LC/MS/MS analysis in presence of NADPH; assay type: ADME; conditions: read-out: CLH
# [4] = target: Soluble guanylate cyclase (Homo sapiens) (UniProt Q02153+O75343+P33402+Q02108); assay: Activation of SGC in HEK293 cells assessed as cGMP production at 30 uM after 20 mins by LC-MS/MS analysis in presence of NO-donor DETA-NONOate; assay type: cell-based
# [5] = Tmax in CD-1 mouse at 0.1 mg/kg, iv or 1 mg/kg, po by LC-MS/MS analysis; assay type: ADME, organism-based; conditions: in vivo
# [6] = Dissociation constant, pKa of the compound; assay type: physicochemical
# [7] = Cmax in Beagle dog at 1 mg/kg, po by LC-MS/MS analysis; assay type: ADME, organism-based, Canis lupus familiaris; design: dose 1 mg/kg, route oral; conditions: in vivo
# Rattus norvegicus [8] = assay: Reduction in mean arterial pressure in normotensive Sprague-Dawley rat at 30 mg/kg, po measured after 12 to 24 hrs; assay type: functional, Artery
# [9] = target: 3',5'-cyclic-AMP phosphodiesterase 4D (Homo sapiens) (UniProt Q08499); assay: Inhibition of PDE4D2 (unknown origin) at 10 uM
# 3',5'-cyclic-AMP phosphodiesterase 4D (Homo sapiens), sequence (Q08499 whole entry): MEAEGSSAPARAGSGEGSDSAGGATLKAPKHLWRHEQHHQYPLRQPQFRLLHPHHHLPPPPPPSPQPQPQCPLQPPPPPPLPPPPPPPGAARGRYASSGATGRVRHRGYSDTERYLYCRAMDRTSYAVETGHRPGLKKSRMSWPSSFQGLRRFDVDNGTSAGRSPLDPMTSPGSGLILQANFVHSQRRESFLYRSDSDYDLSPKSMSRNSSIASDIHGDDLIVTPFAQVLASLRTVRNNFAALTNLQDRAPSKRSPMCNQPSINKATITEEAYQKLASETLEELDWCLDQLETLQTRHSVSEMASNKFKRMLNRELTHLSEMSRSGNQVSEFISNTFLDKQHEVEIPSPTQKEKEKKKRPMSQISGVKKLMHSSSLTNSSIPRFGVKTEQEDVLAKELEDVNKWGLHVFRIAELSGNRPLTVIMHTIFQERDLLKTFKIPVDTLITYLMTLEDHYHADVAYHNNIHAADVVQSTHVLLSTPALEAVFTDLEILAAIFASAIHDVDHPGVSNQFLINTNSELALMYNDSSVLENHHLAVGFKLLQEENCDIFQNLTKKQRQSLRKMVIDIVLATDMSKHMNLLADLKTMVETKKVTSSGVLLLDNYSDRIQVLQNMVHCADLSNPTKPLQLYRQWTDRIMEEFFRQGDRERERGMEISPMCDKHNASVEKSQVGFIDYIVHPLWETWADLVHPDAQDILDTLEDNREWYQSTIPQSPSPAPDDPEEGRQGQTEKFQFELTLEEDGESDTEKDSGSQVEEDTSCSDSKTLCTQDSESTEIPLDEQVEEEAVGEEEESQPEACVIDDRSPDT
# [10] = target: cGMP-inhibited 3',5'-cyclic phosphodiesterase 3A (Homo sapiens) (UniProt Q14432); assay: Inhibition of PDE3A (unknown origin) at 10 uM
# cGMP-inhibited 3',5'-cyclic phosphodiesterase 3A (Homo sapiens), sequence (Q14432 whole entry): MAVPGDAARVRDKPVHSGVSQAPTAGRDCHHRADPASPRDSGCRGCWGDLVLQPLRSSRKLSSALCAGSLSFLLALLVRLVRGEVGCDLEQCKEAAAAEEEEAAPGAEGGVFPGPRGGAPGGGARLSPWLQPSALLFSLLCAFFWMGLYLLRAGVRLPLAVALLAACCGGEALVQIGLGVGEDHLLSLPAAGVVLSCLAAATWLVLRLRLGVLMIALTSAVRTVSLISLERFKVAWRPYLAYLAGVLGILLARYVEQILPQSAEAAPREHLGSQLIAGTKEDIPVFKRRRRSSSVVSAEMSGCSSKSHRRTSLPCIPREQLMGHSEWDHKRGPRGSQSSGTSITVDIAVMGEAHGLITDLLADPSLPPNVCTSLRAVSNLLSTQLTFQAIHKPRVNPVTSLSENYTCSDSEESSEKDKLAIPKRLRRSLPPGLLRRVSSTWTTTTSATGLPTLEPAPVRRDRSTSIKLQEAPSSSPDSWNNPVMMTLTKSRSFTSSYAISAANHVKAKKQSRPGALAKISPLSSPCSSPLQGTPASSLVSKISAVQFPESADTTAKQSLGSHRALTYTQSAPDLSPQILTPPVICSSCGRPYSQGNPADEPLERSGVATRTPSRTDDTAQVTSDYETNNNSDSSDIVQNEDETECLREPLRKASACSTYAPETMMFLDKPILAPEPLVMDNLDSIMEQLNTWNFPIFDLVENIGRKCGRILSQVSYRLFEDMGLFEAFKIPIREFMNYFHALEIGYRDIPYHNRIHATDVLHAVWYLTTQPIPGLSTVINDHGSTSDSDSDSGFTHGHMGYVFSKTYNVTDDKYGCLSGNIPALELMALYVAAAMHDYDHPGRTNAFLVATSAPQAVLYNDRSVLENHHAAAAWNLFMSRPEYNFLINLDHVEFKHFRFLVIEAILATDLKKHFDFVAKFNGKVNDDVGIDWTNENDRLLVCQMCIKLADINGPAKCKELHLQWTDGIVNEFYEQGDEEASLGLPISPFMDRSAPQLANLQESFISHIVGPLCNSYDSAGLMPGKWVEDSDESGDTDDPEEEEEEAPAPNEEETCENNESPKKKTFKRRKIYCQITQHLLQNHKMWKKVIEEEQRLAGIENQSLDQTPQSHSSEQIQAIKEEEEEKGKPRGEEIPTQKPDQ
# [11] = Thermodynamic solubility of the compound at pH 7.4; assay type: physicochemical; conditions: buffer, read-out: Therm_solubility
# [12] = target: cAMP and cAMP-inhibited cGMP 3',5'-cyclic phosphodiesterase 10A (Homo sapiens) (UniProt Q9Y233); assay: Inhibition of PDE10A (unknown origin) at 10 uM
# [13] = target: Dual specificity calcium/calmodulin-dependent 3',5'-cyclic nucleotide phosphodiesterase 1B (Homo sapiens) (UniProt Q01064); assay: Inhibition of PDE1B (unknown origin) at 10 uM
# [14] = target: cGMP-specific 3',5'-cyclic phosphodiesterase (Homo sapiens) (UniProt O76074); assay: Inhibition of PDE5 (unknown origin) at 10 uM
# [15] = Oral bioavailability in Beagle dog at 1 mg/kg by LC-MS/MS analysis; assay type: ADME, organism-based, Canis lupus familiaris; conditions: in vivo
# [16] = target: T1, Kappa-type opioid receptor (Homo sapiens, UniProt P41145); assay: Binding affinity to KOP receptor (unknown origin) at 10 uM
# T1 sequence (P41145 whole entry): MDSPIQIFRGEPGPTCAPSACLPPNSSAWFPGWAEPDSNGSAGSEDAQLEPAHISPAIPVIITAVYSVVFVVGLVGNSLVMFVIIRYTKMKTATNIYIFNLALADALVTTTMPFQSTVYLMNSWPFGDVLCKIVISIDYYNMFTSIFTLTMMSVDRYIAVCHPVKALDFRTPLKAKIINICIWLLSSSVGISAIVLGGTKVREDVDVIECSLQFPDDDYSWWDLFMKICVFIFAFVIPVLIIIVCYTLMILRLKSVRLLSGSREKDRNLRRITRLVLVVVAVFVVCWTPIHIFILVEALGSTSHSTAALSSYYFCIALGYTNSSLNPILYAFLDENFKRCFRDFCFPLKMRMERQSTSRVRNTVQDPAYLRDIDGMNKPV
# Rattus norvegicus [17] = assay: Reduction in mean arterial pressure in po dosed normotensive Sprague-Dawley rat measured after 12 to 24 hrs; assay type: functional; conditions: Artery
# [18] = Tmax in Sprague-Dawley rat at 0.1 mg/kg, iv or 1 mg/kg, po by LC-MS/MS analysis; assay type: ADME, organism-based; conditions: in vivo
# Rattus norvegicus [19] = assay: fCmax in Sprague-Dawley rat at 1 mg/kg, po after 5 hrs by LC-MS/MS analysis; assay type: ADME, organism-based; conditions: in vivo
# [20] = AUC(0 to infinity) in Beagle dog at 0.1 mg/kg, iv or 1 mg/kg, po by LC-MS/MS analysis; assay type: ADME, organism-based, Canis lupus familiaris; conditions: in vivo
# [21] = Cmax in CD-1 mouse at 1 mg/kg, po by LC-MS/MS analysis; assay type: ADME, organism-based; design: dose 1 mg/kg, route oral; conditions: in vivo
# [22] = Volume of distribution at steady state in CD-1 mouse at 0.1 mg/kg, iv or 1 mg/kg, po by LC-MS/MS analysis; assay type: ADME, organism-based; conditions: in vivo, read-out: Vdss
# [23] = Thermodynamic solubility of the compound at pH 9.2; assay type: physicochemical; conditions: buffer, read-out: Therm_solubility
# [24] = AUC(0 to infinity) in Sprague-Dawley rat at 0.1 mg/kg, iv or 1 mg/kg, po by LC-MS/MS analysis; assay type: ADME, organism-based; conditions: in vivo
# [25] = Apparent permeability of compound from apical to basolateral side; assay type: physicochemical; conditions: not told
# [26] = Tmax in Beagle dog at 0.1 mg/kg, iv or 1 mg/kg, po by LC-MS/MS analysis; assay type: ADME, organism-based, Canis lupus familiaris; conditions: in vivo
# [27] = AUC(0 to infinity) in CD-1 mouse at 0.1 mg/kg, iv or 1 mg/kg, po by LC-MS/MS analysis; assay type: ADME, organism-based; conditions: in vivo
# [28] = Oral bioavailability in Sprague-Dawley rat at 1 mg/kg by LC-MS/MS analysis; assay type: ADME, organism-based; conditions: in vivo
# [29] = Cmax in Sprague-Dawley rat at 1 mg/kg, po by LC-MS/MS analysis; assay type: ADME, organism-based; design: dose 1 mg/kg, route oral; conditions: in vivo
# Rattus norvegicus [30] = assay: Reduction in mean arterial pressure in normotensive Sprague-Dawley rat at 10 mg/kg, po measured after 12 to 24 hrs; assay type: functional, Artery
# [31] = target: cGMP-dependent 3',5'-cyclic phosphodiesterase (Homo sapiens) (UniProt O00408); assay: Inhibition of PDE2A (unknown origin) at 10 uM
# [32] = Oral bioavailability in CD-1 mouse at 1 mg/kg by LC-MS/MS analysis; assay type: ADME, organism-based; conditions: in vivo
# [33] = Volume of distribution at steady state in Beagle dog at 0.1 mg/kg, iv or 1 mg/kg, po by LC-MS/MS analysis; assay type: ADME, organism-based, Canis lupus familiaris; conditions: in vivo, read-out: Vdss
# [34] = Volume of distribution at steady state in Sprague-Dawley rat at 0.1 mg/kg, iv or 1 mg/kg, po by LC-MS/MS analysis; assay type: ADME, organism-based; conditions: in vivo, read-out: Vdss
# [35] = target: T1, Kappa-type opioid receptor; assay: Binding affinity to KOP receptor (unknown origin)
# [36] = Oral bioavailability in Sprague-Dawley rat at 10 mg/kg by LC-MS/MS analysis; assay type: ADME, organism-based; conditions: in vivo
# [37] = Terminal half-life in Sprague-Dawley rat at 1 mg/kg, iv by LC-MS/MS analysis; assay type: ADME, organism-based; conditions: in vivo, read-out: beta t1/2
# [38] = target: T1, Kappa-type opioid receptor; assay: Agonist activity at KOP receptor (unknown origin)
smiles,measurement,setting,value
Cc1cccc(Cn2nc(-c3ncc(F)c(O)n3)cc2-c2ccon2)c1F,microsomal CLint at 2 µM,[1],79 µL/min/mg
same,EC50,[2],0.24 µM
same,microsomal CLint at 2 µM,[3],8 µL/min/mg
O=S(=O)(c1ccccc1)c1cnc(-c2cc(-c3ccon3)n(Cc3ccccc3F)n2)nc1O,microsomal CLint at 2 µM,[1],27 µL/min/mg
same,EC50,[2],0.35 µM
same,microsomal CLint at 2 µM,[3],18 µL/min/mg
O=c1[nH]c(-c2cc(-c3ccsn3)n(Cc3ccccc3F)n2)ncc1F,microsomal CLint at 2 µM,[1],129 µL/min/mg
same,EC50,[2],0.18 µM
same,microsomal CLint at 2 µM,[3],169 µL/min/mg
Oc1nc(-c2cc(-c3ncon3)n(Cc3ccccc3F)n2)ncc1F,microsomal CLint at 2 µM,[1],4 µL/min/mg
same,Emax,[4],68%
Cc1nc(-c2cc(-c3ccon3)n(Cc3ccccc3F)n2)nc(O)c1F,microsomal CLint at 2 µM,[1],16 µL/min/mg
same,Emax,[4],70%
same,microsomal CLint at 2 µM,[3],9 µL/min/mg
Cc1cc(-c2cc(-c3ncc(F)c(O)n3)nn2Cc2ccccc2F)no1,microsomal CLint at 2 µM,[1],249 µL/min/mg
same,Emax,[4],23%
same,microsomal CLint at 2 µM,[3],118 µL/min/mg
Oc1nc(-c2cc(-c3ccon3)n(Cc3ccccc3F)n2)ncc1F,Tmax,[5],1.7 h
same,pKa,[6],5.75
same,Cmax,[7],3500 ng/mL
same,Activity,Rattus norvegicus [8],-30 mmHg
same,inhibition,[9],< 30%
same,inhibition,[10],< 30%
same,solubility thermodynamic,[11],3 µg/mL
same,inhibition,[12],< 30%
same,inhibition,[13],< 30%
same,inhibition,[14],< 30%
same,bioavailability,[15],45%
same,Activity,[16],21%
same,Activity,Rattus norvegicus [17],Dose-dependent effect
same,minimal effective dose,Rattus norvegicus [17]; read-out: MED,1 mg/kg
same,Tmax,[18],5.3 h
same,fCmax,Rattus norvegicus [19],80 nM
same,AUC(0-inf),[20],41700 ng·h/mL
same,Cmax,[21],1000 ng/mL
same,Vd,[22],1.3 L/kg
same,solubility thermodynamic,[23],142 µg/mL
same,AUC(0-inf),[24],25000 ng·h/mL
same,Papp A→B,[25],21.8 ×10⁻⁶ cm/s
same,Tmax,[26],3.3 h
same,AUC(0-inf),[27],4500 ng·h/mL
same,bioavailability,[28],96%
same,Cmax,[29],1500 ng/mL
same,Activity,Rattus norvegicus [30],10 mmHg
same,inhibition,[31],< 30%
same,bioavailability,[32],> 100%
same,Vd,[33],0.095 L/kg
same,Vd,[34],0.18 L/kg
Oc1nc(-c2cc(C3CC3)n(Cc3ccccc3F)n2)ncc1F,microsomal CLint at 2 µM,[1],10 µL/min/mg
same,Emax,[4],26%
Nc1ccnc(-c2cc(-c3ccon3)n(Cc3ccccc3F)n2)n1,IC50,[35],1.2 µM
same,bioavailability,[36],53%
same,microsomal CLint at 2 µM,[1],26 µL/min/mg
same,EC50,[2],0.24 µM
same,half-life,[37],0.433 h
same,EC50,[38],1.5 µM
same,microsomal CLint at 2 µM,[3],10 µL/min/mg
Oc1nc(-c2cc(-c3ccon3)n(Cc3ccccc3F)n2)ncc1C(F)(F)F,microsomal CLint at 2 µM,[1],20 µL/min/mg
same,Emax,[4],54%
same,microsomal CLint at 2 µM,[3],19 µL/min/mg
O=c1[nH]c(-c2cc(-c3ccon3)n(Cc3cccc(Cl)c3F)n2)ncc1F,microsomal CLint at 2 µM,[1],2 µL/min/mg
same,EC50,[2],0.38 µM
same,microsomal CLint at 2 µM,[3],5 µL/min/mg
Oc1ccnc(-c2cc(-c3ccon3)n(Cc3ccccc3F)n2)n1,microsomal CLint at 2 µM,[1],15 µL/min/mg
same,Emax,[4],92%
same,microsomal CLint at 2 µM,[3],12 µL/min/mg
Oc1nc(-c2cc(-c3ccon3)n(CCC(F)(F)F)n2)ncc1F,microsomal CLint at 2 µM,[1],32 µL/min/mg
same,microsomal CLint at 2 µM,[3],23 µL/min/mg
Oc1nc(-c2cc(-c3ccccn3)n(Cc3ccccc3F)n2)ncc1F,microsomal CLint at 2 µM,[1],39 µL/min/mg
same,Emax,[4],35%
same,microsomal CLint at 2 µM,[3],9 µL/min/mg
N#Cc1cc(-c2ncc(F)c(O)n2)nn1Cc1ccccc1F,Emax,[4],73%
Oc1nc(-c2cc(-c3ccon3)n(Cc3sccc3F)n2)ncc1F,microsomal CLint at 2 µM,[1],13 µL/min/mg
same,EC50,[2],0.28 µM
same,microsomal CLint at 2 µM,[3],11 µL/min/mg
